Experimental data as given in ChEMBL document CHEMBL5550222, “Synthesis and Biological Evaluation of Novel Psidium Meroterpenoid Derivatives against Cisplatin-Induced Acute Kidney Injury” (J Med Chem, 2024).
Active and inactive are the calls of the source. The rule behind the calls is not given here.

How the values were obtained:
[1] = target: T1, Tyrosine-protein phosphatase non-receptor type 1 (Homo sapiens, UniProt P18031); assay: Inhibition of PTP1B (unknown origin)
T1 sequence (P18031 whole entry): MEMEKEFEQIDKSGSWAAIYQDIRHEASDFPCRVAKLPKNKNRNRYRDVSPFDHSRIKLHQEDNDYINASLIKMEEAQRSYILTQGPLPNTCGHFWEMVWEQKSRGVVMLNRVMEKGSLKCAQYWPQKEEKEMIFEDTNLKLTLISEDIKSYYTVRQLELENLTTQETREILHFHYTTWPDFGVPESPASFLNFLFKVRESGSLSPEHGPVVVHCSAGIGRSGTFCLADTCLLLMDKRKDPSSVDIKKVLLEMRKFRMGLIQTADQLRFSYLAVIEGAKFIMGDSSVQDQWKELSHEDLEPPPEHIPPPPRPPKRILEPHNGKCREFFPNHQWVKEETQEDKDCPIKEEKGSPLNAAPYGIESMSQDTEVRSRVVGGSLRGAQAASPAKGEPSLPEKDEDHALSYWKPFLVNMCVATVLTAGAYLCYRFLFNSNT

[2] = Antitumor activity against cisplatin-induced mouse Lewis lung carcinoma cell line xenografted C57BL/6J mouse assessed as reduction in tumor mass at 50 mg/kg, po preadministered with compound for 3 days followed by cisplatin addition on day 3 and measured 72 hrs post cisplatin administration; type: functional; parameters: scale not given: the % may be the effect or the level left; details: time 6 day
HK-2 [3] = assay: Protection against cisplatin-induced nephrotoxicity in human HK-2 cells assessed as cell viability at 10 uM preincubated with compound for 2 hrs followed by cisplatin induction and measured after 72 hrs by MTT assay (reference value: 45.1 +/- 3.2%); type: functional; details: time 74 hrs, read-out: Activity
HK-2 [4] = assay: Protection against cisplatin-induced nephrotoxicity in human HK-2 cells assessed as cell viability at 1 uM preincubated with compound for 2 hrs followed by cisplatin induction and measured after 72 hrs by MTT assay (reference value: 37.37 +/- 1.35%); type: functional; details: time 74 hrs, read-out: Activity
HK-2 [5] = assay: Protection against cisplatin-induced nephrotoxicity in human HK-2 cells at 5 to 10 uM preincubated with compound for 2 hrs followed by cisplatin induction and measured after 72 hrs by MTT assay; type: functional, cell-based; details: dose 5-10 µM, time 74.0 hrs
HK-2 [6] = assay: Protection against cisplatin-induced nephrotoxicity in human HK-2 cells assessed as cell viability at 5 uM preincubated with compound for 2 hrs followed by cisplatin induction and measured after 72 hrs by MTT assay (reference value: 37.37 +/- 1.35%); type: functional; details: time 74 hrs, read-out: Activity
HK-2 [7] = assay: Protection against cisplatin-induced nephrotoxicity in human HK-2 cells preincubated with compound for 2 hrs followed by cisplatin induction and measured after 72 hrs by MTT assay; type: functional, cell-based; details: dose 1-10 µM, time 74.0 hrs
HK-2 [8] = assay: Protection against cisplatin-induced nephrotoxicity in human HK-2 cells increase in viability at 10 uM preincubated with compound for 2 hrs followed by cisplatin induction and measured after 72 hrs by MTT assay (reference value: 45.1%); type: functional; details: time 74 hrs
HK-2 [9] = assay: Protection against cisplatin-induced nephrotoxicity in human HK-2 cells assessed as cell viability at 10 uM preincubated with compound for 2 hrs followed by cisplatin induction and measured after 72 hrs by MTT assay (reference value: 37.37 +/- 1.35%); type: functional; details: time 74 hrs, read-out: Activity
[10] = Cytotoxicity against human HK-2 cells incubated for 72 hrs by MTT assay; type: toxicity, cell-based
HK-2 [11] = assay: Protection against cisplatin-induced nephrotoxicity in human HK-2 cells assessed as cell viability at 1 uM preincubated with compound for 2 hrs followed by cisplatin induction and measured after 72 hrs by MTT assay (reference value: 45.1 +/- 3.2%); type: functional; details: time 74 hrs, read-out: Activity
HK-2 [12] = assay: Protection against cisplatin-induced nephrotoxicity in human HK-2 cells assessed as cell viability at 5 uM preincubated with compound for 2 hrs followed by cisplatin induction and measured after 72 hrs by MTT assay (reference value: 45.1 +/- 3.2%); type: functional; details: time 74 hrs, read-out: Activity

| SMILES | IC50 [1] [µM] | viability at 10 µM (HK-2 [3]) [%] | Activity (HK-2 [5]) | IC50 at 72 h [10] [µM] | viability at 1 µM (HK-2 [11]) [%] | viability at 5 µM (HK-2 [12]) [%] | also measured |
| --- | --- | --- | --- | --- | --- | --- | --- |
| CC1(C)[C@H]2[C@H]3[C@@H](CC[C@]3(C)[C@@H](c3ccccc3)c3c(O)c(C=O)c(O)c(C=O)c3O)[C@](C)(O)CC[C@H]21 | 5 |  |  |  |  |  |  |
| NCCCNCCSP(=O)(O)O [AMIFOSTINE] |  |  |  |  |  |  | Activity [2]: 28.2% |
| COc1c(CO)c(OC)c(C(=O)c2ccccc2)c2c1CC1CC/C(C)=C/CC(C)(C)/C=C/CC1(C)O2 (centres undefined) |  | 95.5 | Active | > 10 | 45.7 | 80.8 | viability at 1 µM (HK-2 [4]): 39.1%; viability at 5 µM (HK-2 [6]): 50.5%; Activity (HK-2 [7]): Dose-Dependent Effect; Activity (HK-2 [8]): >90%; viability at 10 µM (HK-2 [9]): 61.6% |
| COc1c2c(c(C(=O)c3ccccc3)c(OC)c1C(=O)O)OC1(C)C/C=C/C(C)(C)C/C=C(\C)CCC1C2 (centres undefined) |  | 65 | Active | > 10 | 48.4 | 60.4 |  |
| C=C1CC[C@@H]2[C@H](c3ccccc3)c3c(O)c(C=O)c(O)c(C=O)c3O[C@@]2(C)CC[C@H]2[C@H]1CC2(C)C | 5 |  |  |  |  |  |  |
| COc1c(C=O)c2c(c(OC)c1C(=O)c1ccccc1)CC1CC/C(C)=C/CC(C)(C)/C=C/CC1(C)O2 (centres undefined) |  | 67.9 | Active | > 10 | 70.4 | 79.2 |  |
| COc1c2c(c(CN3CCN(C)CC3)c(OC)c1C(=O)c1ccccc1)OC1(C)C/C=C/C(C)(C)C/C=C(\C)CCC1C2 (centres undefined) |  | 64.2 | Active | 9.5 | 49.7 | 59.6 |  |
| C[C@@H]1CC[C@@H]([C@@H](c2ccccc2)c2c(O)c(C=O)c(O)c(C=O)c2O)[C@]2(C)CC[C@@H](C(C)(C)O)C=C12 | 5 |  |  |  |  |  |  |
